Test results taken from PubChem BioAssay AID1648 (Sanford-Burnham Center for Chemical Genomics, 2009).
Calls of active or inactive are those of the source. How the calls were made is not given here.

Target: Serine/threonine-protein kinase mTOR (Homo sapiens) (UniProt P42345)
Assay: binders of mTOR FRB domain, biophysical, NMR (AID 1648)
Conditions: NMR binding to FRB domain, chemical shift

Sequence of Serine/threonine-protein kinase mTOR (Homo sapiens) (P42345 2015-2114): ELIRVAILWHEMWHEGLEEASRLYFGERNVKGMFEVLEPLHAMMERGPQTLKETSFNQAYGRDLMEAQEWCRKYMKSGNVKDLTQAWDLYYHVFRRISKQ

| SMILES | Kd |
| --- | --- |
| CCc1sc(C(=O)NC)cc1Br | > 4 mM (inactive) |
| CC(CCC(=O)O)[C@H]1CCC2C3C[C@H](O)[C@@H]4C[C@H](O)CC[C@]4(C)C3CC[C@@]21C (stereo not given in full) | > 4 mM (inactive) |
| CCc1c(C)n([O-])c2c([n+]1=O)CCC2 | > 4 mM (inactive) |
| O=C(O)C1CCN(c2ccc(C(F)(F)F)cn2)CC1 | > 4 mM (inactive) |
| CC(C)=CC1C(CO)C1(C)C (stereo not given) | > 4 mM (inactive) |
| CC(=O)Nc1ccc2c(c1)n(C)c(=O)n2C | > 4 mM (inactive) |
| CN1CCC(N(C)C2CCN(C)CC2)CC1 | > 4 mM (inactive) |
| NC(=O)c1ccc(C(N)=O)cc1 | > 4 mM (inactive) |
| CCc1ccccc1NC(=O)c1ccoc1C | > 4 mM (inactive) |
| O=C(O)CCc1nc2ccccc2[nH]c1=O | > 4 mM (inactive) |
| CC(=O)Nc1cccc(Cn2cccn2)c1 | > 4 mM (inactive) |
| Cc1cc(=O)[nH]c2ccccc12 | > 4 mM (inactive) |
| COc1cc2c(c(OC)c1OC)-c1ccc(O)c(=O)cc1[C@@H](NC(C)=O)CC2 | > 4 mM (inactive) |
| CC(=O)c1cnc2nc(C(F)(F)F)nn2c1C | > 4 mM (inactive) |
| Cn1[nH]c2nc3[nH]n(C)c(=O)c3c(-c3ccccc3)c2c1=O | > 4 mM (inactive) |
| O=C(Nc1ccc(F)cc1F)c1ccco1 | > 4 mM (inactive) |
| O=C(Nc1cccc2ncccc12)c1cccnc1 | > 4 mM (inactive) |
| COc1c(CC=C(C)C)c2c(c3oc(=O)c(-c4ccc(O)cc4)c(O)c13)C=CC(C)(C)O2 | > 4 mM (inactive) |
| CC(=O)Nc1ccc(NC(C)=O)cc1 | > 4 mM (inactive) |
| O=C1COc2ccc(C(=O)c3ccccc3)cc2CN1 | > 4 mM (inactive) |
| CC(C)c1ccc(NC(=O)C(N)=O)cc1 | > 4 mM (inactive) |
| Cc1nc2nc(Cc3ccccc3)nn2c(C)c1Cl | > 4 mM (inactive) |
| O=C(NCc1ccncc1)c1cccc(F)c1 | > 4 mM (inactive) |
| NC(=O)c1ccc(-c2csnn2)cc1 | > 4 mM (inactive) |

| SMILES | Kd |
| --- | --- |
| CCNC(CC(=O)Nc1ccc(O)cc1)C(=O)O (stereo not given) | > 4 mM (inactive) |
| CC(=O)Oc1c(C)cc(O)c2ccccc12 | > 4 mM (inactive) |
| NC(=O)C1CCN(C(=O)Nc2ccccc2)CC1 | > 4 mM (inactive) |
| O=C(Cc1c(F)cccc1Cl)Nc1ccncc1 | > 4 mM (inactive) |
| NC(=S)NC(=O)CN1C(=O)c2ccccc2C1=O | > 4 mM (inactive) |
| NC(=O)c1ccc2c(c1)OCO2 | > 4 mM (inactive) |
| O=C(O)c1cnn2ccccc12 | > 4 mM (inactive) |
| NC(=O)C(=O)Nc1nc(-c2ccccc2)cs1 | > 4 mM (inactive) |
| CC(C)n1c(Nn2cnnc2)nc2ccccc21 | > 4 mM (inactive) |
| CCNC(=O)CC1Nc2ccccc2NC1=O (stereo not given) | > 4 mM (inactive) |
| Cn1c(=O)n(CC(=O)Nc2cccnc2)c2ccccc21 | > 4 mM (inactive) |
| Cc1cc(C)n(S(=O)(=O)c2ccc(C(C)(C)C)cc2)n1 | > 4 mM (inactive) |
| NC(=O)c1cc(N)cc(C(N)=O)c1 | > 4 mM (inactive) |
| CC1CN(C(=O)c2ccncc2)CC(C)O1 (stereo not given) | > 4 mM (inactive) |
| Cn1c(=O)c2[nH]c(Nc3ccccc3)nc2n(C)c1=O | > 4 mM (inactive) |
| COc1ccc(-c2coc3c(O)c(OC)ccc3c2=O)cc1 | > 4 mM (inactive) |
| Oc1ccccc1C(=S)N1CCCCCC1 | > 4 mM (inactive) |
| NC(=O)c1c[nH]c2ccccc12 | > 4 mM (inactive) |
| Oc1ccc(-n2cncn2)cc1 | > 4 mM (inactive) |
| CCN1CC2(C)CC[C@H](OC)[C@]34C2[C@H](O)C2(OCO[C@@]25C[C@H](OC)[C@H]2C[C@]3(O)C5[C@H]2O)C14 | > 4 mM (inactive) |
| C=C1CCC(=O)C(C)CCC2C1CC2(C)C (stereo not given) | > 4 mM (inactive) |
| CN1CCN(c2cc(=O)n(C)c(=O)[nH]2)CC1 | > 4 mM (inactive) |
| CCOC(=O)c1[nH]cnc1C(=O)OC(C)C | > 4 mM (inactive) |
| O=C(Nc1ccc2c(c1)OCO2)c1ccc(=O)[nH]n1 | > 4 mM (inactive) |

| SMILES | Kd |
| --- | --- |
| Cc1cc(C)n(-c2nc(N)cc(=O)[nH]2)n1 | > 4 mM (inactive) |
| CN1CC(=O)N=C1N | > 4 mM (inactive) |
| Cc1cc2cc3c(C)cc(=O)oc3c(C)c2o1 | > 4 mM (inactive) |
| CCNS(=O)(=O)c1ccc(OC)c(C)c1 | > 4 mM (inactive) |
| Cn1c(=O)n(C)c2cc(C(N)=O)ccc21 | > 4 mM (inactive) |
| NCc1oc(-c2ccccc2)cc1C(=O)O | > 4 mM (inactive) |
| Cc1ccc(C)n1NC(=O)c1ccco1 | > 4 mM (inactive) |
| Cc1ccc(/C=C2/C(=O)N=C(N)N2C)s1 | > 4 mM (inactive) |
| OC12CC3CC(C1)C1(NCCS1)C(C3)C2 (stereo not given) | > 4 mM (inactive) |
| COc1cc(OC)cc(-c2nc(N)n[nH]2)c1 | > 4 mM (inactive) |
| COC(=O)CC1C(C)(C)C(OC(C)=O)[C@@H]2[C@@H](OC(C)=O)[C@]34O[C@@]2(O)[C@]1(C)C3CC[C@]1(C)C4=CC(=O)O[C@H]1c1ccoc1 (stereo not given in full) | > 4 mM (inactive) |
| S=C(Cc1cccnc1)N1CCOCC1 | > 4 mM (inactive) |
| CC[C@H](/C=C/C(C)C1CCC2C3CCC4=CC(=O)CC[C@]4(C)C3CC[C@]12C)C(C)C (stereo not given in full) | > 4 mM (inactive) |
| CC12CC[C@H](CC1=O)C2(C)C | > 4 mM (inactive) |
| NC(=O)CCn1ncc2ccccc21 | > 4 mM (inactive) |
| C[C@H]1C[C@@H](O)[C@]2(O)[C@@]13CC(=O)OC[C@@]2(C)[C@](C)(O)C(=O)C3 | > 4 mM (inactive) |
| Cc1nnc(SCc2cccs2)[nH]c1=O | > 4 mM (inactive) |
| Cn1cnnc1SCC(=O)Nc1nccs1 | > 4 mM (inactive) |
| CNCc1ccccc1 | > 4 mM (inactive) |
| O=C1c2ccccc2C(=O)c2c1ccc(O)c2O | > 4 mM (inactive) |
| Oc1ccccc1N1CCOCC1 | > 4 mM (inactive) |
| CC(=O)NC1=NN(c2ccccc2)C(=O)C1 | > 4 mM (inactive) |
| c1cncc(Nc2nc(-c3cccnc3)cs2)c1 | > 4 mM (inactive) |
| CC(NC(=O)c1cccnc1)c1ccc2c(c1)OCO2 (stereo not given) | > 4 mM (inactive) |

| SMILES | Kd |
| --- | --- |
| Oc1ccc(/C=C/c2cc(O)cc(O)c2)cc1 | > 4 mM (inactive) |
| COc1cc(O)c(C(C)=O)c(OC)c1 | > 4 mM (inactive) |
| COc1ccc(C(=O)NCC(=O)O)cc1 | > 4 mM (inactive) |
| O=C(CSc1ncccn1)NCc1ccco1 | > 4 mM (inactive) |
| CC(=O)O[C@@H]1CC2C(C)(C)C(=O)C3OC3[C@]2(C)C2CC[C@@]3(C)[C@H](c4ccoc4)OC(=O)C4OC43[C@@]21C (stereo not given in full) | > 4 mM (inactive) |
| NC12CC3CC(C1)CC(C(=O)O)(C3)C2 | > 4 mM (inactive) |
| Cc1ccc2nc(NC(=O)CN3CCOCC3)sc2c1 | > 4 mM (inactive) |
| Cc1nnc(N2CCN(Cc3ccccc3)CC2)[nH]c1=O | > 4 mM (inactive) |
| Cc1cccc(N2CCN(C(=O)c3ccncc3)CC2)c1C | > 4 mM (inactive) |
| CCC(=O)Nc1ccccc1NC(C)=O | > 4 mM (inactive) |
| Nc1ccc2c(c1)C(=O)OC2 | > 4 mM (inactive) |
| CS(=O)(=O)N1CCN(c2ccccc2F)CC1 | > 4 mM (inactive) |
| O=C(OCc1c(Cl)cccc1Cl)c1cnccn1 | > 4 mM (inactive) |
| Cc1noc(C)c1CSc1nc2ccccc2[nH]1 | > 4 mM (inactive) |
| CSc1n[nH]c(NCc2cccs2)n1 | > 4 mM (inactive) |
| CN1CCN(C2CCN(Cc3ccccc3)CC2)CC1 | > 4 mM (inactive) |
| NC(=O)c1ccc(SCC(=O)O)c([N+](=O)[O-])c1 | > 4 mM (inactive) |
| CC(=O)Nc1cc2c(cc1C(=O)C(C)C)OCCO2 | > 4 mM (inactive) |
| COc1ccc(-c2nc3nc(C)cc(C)n3n2)cc1 | > 4 mM (inactive) |
| CC(=O)Nc1cccs1 | > 4 mM (inactive) |
| CC(=O)OC1CCC23C(=O)OC45CCC(C6=CC(=O)OC6)C4(C)CCC2C5CCC3(O)C1 (stereo not given) | > 4 mM (inactive) |
| CC(=O)Nc1ccc2c(c1)CCCC2=O | > 4 mM (inactive) |
| CCOC(=O)CN1C(=O)c2ccccc2C1=O | > 4 mM (inactive) |
| O=C(O)c1ccc2snnc2c1 | > 4 mM (inactive) |

| SMILES | Kd |
| --- | --- |
| CC(=O)C1=C(O)C(=O)NC1c1ccccc1 (stereo not given) | > 4 mM (inactive) |
| OCCN1CCN(C(=S)c2ccc(Cl)cc2)CC1 | > 4 mM (inactive) |
| C=CCCCCCCCCCCCc1ccco1 | > 4 mM (inactive) |
| Nc1nonc1-c1nc2ccccc2[nH]1 | > 4 mM (inactive) |
| CCOC(=O)C1=C(C)N2CCN=C2S1 | > 4 mM (inactive) |
| Cc1ccc(/C=N/NC(N)=O)o1 | > 4 mM (inactive) |
| CC(C)n1nnc2cc(C(=O)O)ccc21 | > 4 mM (inactive) |
| c1ccc(CCc2nc(-c3cccnc3)no2)cc1 | > 4 mM (inactive) |
| Cc1cc(C)n(CCC(=O)O)n1 | > 4 mM (inactive) |
| Clc1ncnc2[nH]ncc12 | > 4 mM (inactive) |
| CNC(=O)c1cc(C)c(-c2ccccc2)s1 | > 4 mM (inactive) |
| Cn1c(=O)c2c([nH]c(=O)n2C)n(C)c1=O | > 4 mM (inactive) |
| COc1cccc(C(=O)Nc2c(C)n[nH]c2C)c1 | > 4 mM (inactive) |
| CC(=O)O[C@H]1CCC2(C)C3=C(CCC2C1(C)C)[C@]1(C)CCC(C(C)CCC=C(C)C)[C@@]1(C)CC3 (stereo not given in full) | > 4 mM (inactive) |
| OCc1cccs1 | > 4 mM (inactive) |
| COc1ccc2[nH]cc(CCN(C)C)c2c1 | > 4 mM (inactive) |
| CN1C(=O)c2ccc(C(=O)NC3CCCCC3)cc2C1=O | > 4 mM (inactive) |
| Cc1n[nH]c(C)c1CN | > 4 mM (inactive) |
| Cc1sc2nc(-c3ccco3)oc(=O)c2c1C | > 4 mM (inactive) |
| O=c1ccc2cc(O[C@@H]3O[C@H](CO)[C@@H](O)[C@H](O)[C@H]3O)c(O)cc2o1 | > 4 mM (inactive) |
| CC(C)(C)P(=O)(O)c1ccccc1 | > 4 mM (inactive) |
| O=C(O)C(CO)c1ccccc1 (stereo not given) | > 4 mM (inactive) |
| NC(=O)Cn1cnc2ccccc21 | > 4 mM (inactive) |
| Cc1nc2ccccc2c(=O)n1CCCO | > 4 mM (inactive) |
